In PubChem BioAssay AID256 (DTP/NCI, 2004):
Where “and” joins values, the source holds several entries; their conditions need not be identical. Identical values can stand only once. Inconclusive results and toxic doses are left out. Rule for the calls: active = survival T/C of 150% or more; inactive = T/C below 125% in these data.

Tested on: CD2F1 mice, L1210 leukemia ip, survival T/C
Test: NCI In Vivo Anticancer Drug Screen. Data for tumor model L1210 Leukemia (intraperitoneal) in CD2F1 (CDF1) mice
Conditions: endpoint: mean survival time, higher = longer survival
Method in brief: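 Compound-dosed mice with transplantable tumor versus matched vehicle controls; endpoint ratio T/C reported.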

[1] = dose: 100.0 mg/kg/injection, schedule: Q01DX001 (ip), vehicle: saline with Tween-80
[2] = dose: 200.0 mg/kg/injection, schedule: Q01DX001 (ip), vehicle: saline with Tween-80
[3] = dose: 100.0 mg/kg/injection, schedule: Q01DX009 (ip), vehicle: saline with Tween-80
[4] = dose: 200.0 mg/kg/injection, schedule: Q01DX009 (ip), vehicle: saline with Tween-80

Measured: T/C

N#CSCc1ccc(Cl)c(CSC#N)c1
inactive: dose: 18.8 mg/kg/injection, schedule: Q01DX009 (ip), vehicle: saline 108 % of control | dose: 18.8 mg/kg/injection, schedule: Q04DX003 (ip), vehicle: saline 103 % of control | dose: 37.5 mg/kg/injection, schedule: Q01DX009 (ip), vehicle: saline 108 % of control | dose: 37.5 mg/kg/injection, schedule: Q04DX003 (ip), vehicle: saline 105 % of control | dose: 75.0 mg/kg/injection, schedule: Q01DX001 (ip), vehicle: saline 96 % of control | dose: 75.0 mg/kg/injection, schedule: Q01DX009 (ip), vehicle: saline 108 % of control | dose: 75.0 mg/kg/injection, schedule: Q04DX003 (ip), vehicle: saline 109 % of control

Nc1nc(/C=C/c2ccc([N+](=O)[O-])cc2)c(-c2ccc(Cl)c(Cl)c2)c(=O)[nH]1
inactive: [1] 92 % of control | [2] 89 % of control | dose: 400.0 mg/kg/injection, schedule: Q01DX001 (ip), vehicle: saline with Tween-80 90 % of control

CCOC(N)=O
inactive: dose: 125.0 mg/kg/injection, schedule: Q01DX009 (ip), vehicle: saline 98 % of control and 101 % of control | dose: 250.0 mg/kg/injection, schedule: Q01DX009 (ip), vehicle: saline 104 % of control and 109 % of control | dose: 500.0 mg/kg/injection, schedule: Q01DX009 (ip), vehicle: saline 116 % of control and 101 % of control | dose: 1000.0 mg/kg/injection, schedule: Q01DX009 (ip), vehicle: saline 89 % of control and 105 % of control

O=C(O)/C=C/C(=O)Nc1ccc(Cl)c(Cl)c1
inactive: dose: 6.25 mg/kg/injection, schedule: Q01DX009 (ip), vehicle: Klucel (hydroxypropylcellulose) (HPC) 93 % of control | dose: 12.5 mg/kg/injection, schedule: Q01DX009 (ip), vehicle: Klucel (hydroxypropylcellulose) (HPC) 96 % of control and 98 % of control | dose: 25.0 mg/kg/injection, schedule: Q01DX009 (ip), vehicle: Klucel (hydroxypropylcellulose) (HPC) 113 % of control and 104 % of control | dose: 50.0 mg/kg/injection, schedule: Q01DX009 (ip), vehicle: Klucel (hydroxypropylcellulose) (HPC) 114 % of control and 104 % of control and 110 % of control | dose: 100.0 mg/kg/injection, schedule: Q01DX009 (ip), vehicle: Klucel (hydroxypropylcellulose) (HPC) 104 % of control and 107 % of control and 109 % of control | dose: 200.0 mg/kg/injection, schedule: Q01DX009 (ip), vehicle: Klucel (hydroxypropylcellulose) (HPC) 98 % of control

CC(C)(CC(=O)O)c1ccccc1
inactive: dose: 100.0 mg/kg/injection, schedule: Q04DX003 (ip), vehicle: saline sonified 97 % of control | dose: 200.0 mg/kg/injection, schedule: Q04DX003 (ip), vehicle: saline sonified 101 % of control | dose: 400.0 mg/kg/injection, schedule: Q04DX003 (ip), vehicle: saline sonified 97 % of control

O=c1[nH]cc(COCc2ccccc2)c(=O)[nH]1
inactive: dose: 100.0 mg/kg/injection, schedule: Q04DX003 (ip), vehicle: saline with Tween-80 98 % of control | dose: 200.0 mg/kg/injection, schedule: Q04DX003 (ip), vehicle: saline with Tween-80 104 % of control | dose: 400.0 mg/kg/injection, schedule: Q04DX003 (ip), vehicle: saline with Tween-80 96 % of control

O=C(O)c1cccnc1[N+](=O)[O-]
inactive: dose: 50.0 mg/kg/injection, schedule: Q01DX009 (ip), vehicle: saline with Tween-80 98 % of control | [1] 93 % of control | [3] 94 % of control | [2] 93 % of control | [4] 96 % of control

CCC(CC)(C(N)=O)C(N)=O
inactive: dose: 100.0 mg/kg/injection, schedule: Q04DX002 (ip), vehicle: saline with Tween-80 108 % of control | dose: 200.0 mg/kg/injection, schedule: Q04DX002 (ip), vehicle: saline with Tween-80 100 % of control | dose: 400.0 mg/kg/injection, schedule: Q04DX002 (ip), vehicle: saline with Tween-80 100 % of control

COc1cc2c(cc1O)C(O)CNC2 (stereo not given)
inactive: dose: 100.0 mg/kg/injection, schedule: Q01DX001 (ip), vehicle: saline 104 % of control | dose: 200.0 mg/kg/injection, schedule: Q01DX001 (ip), vehicle: saline 93 % of control | dose: 400.0 mg/kg/injection, schedule: Q01DX001 (ip), vehicle: saline 98 % of control

O=[N+]([O-])c1ccc(CSc2ncnc3c2ncn3C2OC(COP(=O)(O)O)C(O)C2O)cc1 (stereo not given)
inactive: dose: 12.5 mg/kg/injection, schedule: Q01DX005 (ip), vehicle: water 100 % of control | dose: 25.0 mg/kg/injection, schedule: Q01DX005 (ip), vehicle: water 96 % of control | dose: 50.0 mg/kg/injection, schedule: Q01DX005 (ip), vehicle: water 104 % of control | dose: 100.0 mg/kg/injection, schedule: Q01DX005 (ip), vehicle: water 105 % of control | dose: 200.0 mg/kg/injection, schedule: Q01DX005 (ip), vehicle: water 111 % of control

O=C(NCCCC1C2CCC(C2)C1CNC(=O)Nc1cccc(Cl)c1)Nc1cccc(Cl)c1 (stereo not given)
inactive: [3] 93 % of control | [4] 93 % of control | dose: 400.0 mg/kg/injection, schedule: Q01DX009 (ip), vehicle: saline with Tween-80 89 % of control
